Residue numbers refer to the chain shown, from its start. Like-named read-outs stand apart in the source and are kept apart here.
Columns and labels:
[1] = biological target: T1, purified wild type MGL (wt-MGLL 6H-11-313) (Homo sapiens, UniProt Q99685); experiment: MGL enzyme activity assay (4MU-B cleavage), wild type MGL; format: biochemical; details: 10 μM 4MU-B, 5 nM enzyme, 37° C., read-out: MGL wild type inh IC50
T1 construct: purified wild type MGL (wt-MGLL 6H-11-313)
T1 sequence (Q99685 1-303): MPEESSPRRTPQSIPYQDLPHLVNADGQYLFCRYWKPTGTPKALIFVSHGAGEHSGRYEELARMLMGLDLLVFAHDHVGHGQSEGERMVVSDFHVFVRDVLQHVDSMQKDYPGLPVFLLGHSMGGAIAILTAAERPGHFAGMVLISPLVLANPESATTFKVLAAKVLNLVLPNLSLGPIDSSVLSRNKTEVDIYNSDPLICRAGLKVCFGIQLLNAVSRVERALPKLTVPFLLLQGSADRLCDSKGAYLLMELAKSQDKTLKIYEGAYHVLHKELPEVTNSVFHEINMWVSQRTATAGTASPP
Method: All rate-based assays were performed in black 384-well polypropylene PCR microplates (Abgene) in a total volume of 30 μL. Substrate 4-methylumbelliferyl butyrate (4MU-B; Sigma) and either purified mutant MGL (mut-MGLL 11-313 L179S L186S) or purified wild type MGL (wt-MGLL 6H-11-313) were diluted separately into 20 mM PIPES buffer (pH=7.0), containing 150 mM NaCl and 0.001% Tween 20. Compounds of Formula (I) were pre-dispensed (50 nL) into the assay plate using a Cartesian Hummingbird prior to adding 4MU-B (25 μL of 1.2× solution to a final concentration of 10 μM) followed by enzyme (5 μL of a 6× solution to a final concentration of 5 nM) to initiate the reaction. Final compound concentrations ranged from 17 to 0.0003 μM. The fluorescence change due to 4MU-B cleavage was monitored with excitation and emission wavelengths of 335 and 440 nm, respectively, and a bandwidth of 10 nm (Safire^2, Tecan) at 37° C. for 5 min.
The IC50 values for compounds of Formula (I) were determined using Excel from a fit of the equation to the concentration-response plot of the fractional activity as a function of inhibitor concentration.

mutant MGL = biological target: T2, mutant MGL (Homo sapiens, UniProt Q99685, L169S/L176S); experiment: MGL ThermoFluor assay - mutant; format: binding
T2 construct: purified mutant MGL (mut-MGLL 11-313 L179S L186S)
T2 sequence (Q99685 1-303 L169S/L176S): T1 sequence (Q99685 1-303) with L169S, L176S
Method: The ThermoFluor (TF) assay is a 384-well plate-based binding assay that measures thermal stability of proteins^1,2. The experiments were carried out using instruments available from Johnson & Johnson Pharmaceutical Research & Development, LLC. TF dye used in all experiments was 1,8-ANS (Invitrogen: A-47). Final TF assay conditions used for MGL studies were 0.07 mg/ml of mutant MGL, 100 μM ANS, 200 mM NaCl, 0.001% Tween-20 in 50 mM PIPES (pH=7.0).
Screening compound plates contained 100% DMSO compound solutions at a single concentration. For follow-up concentration-response studies, compounds were arranged in a pre-dispensed plate (Greiner Bio-one: 781280), wherein compounds were serially diluted in 100% DMSO across 11 columns within a series. Columns 12 and 24 were used as DMSO reference and contained no compound. For both single and multiple compound concentration-repsonse experiments, the compound aliquots (46 nL) were robotically predispensed directly into 384-well black assay plates (Abgene: TF-0384/k) using the Hummingbird liquid handler. Following compound dispension, protein and dye solutions were added to achieve the final assay volume of 3 μL. The assay solutions were overlayed with 1 μl of silicone oil (Fluka, type DC 200: 85411) to prevent evaporation.
Bar-coded assay plates were robotically loaded onto a thermostatically controlled PCR-type thermal block and then heated from 40 to 90° C. degrees at a ramp-rate of 1° C./min for all experiments. Fluorescence was measured by continuous illumination with UV light (Hamamatsu LC6), supplied via fiber optics and filtered through a band-pass filter (380-400 nm; >6 OD cutoff). Fluorescence emission of the entire 384-well plate was detected by measuring light intensity using a CCD camera (Sensys, Roper Scientific) filtered to detect 500±25 nm, resulting in simultaneous and independent readings of all 384 wells. A single image with 20-sec exposure time was collected at each temperature, and the sum of the pixel intensity in a given area of the assay plate was recorded vs temperature and fit to standard equations to yield the Tm^1. • 1. Pantoliano, M. W., Petrella, E. C., Kwasnoski, J. D., Lobanov, V. S., Myslik, J., Graf, E., Carver, T., Asel, E., Springer, B. A., Lane, P., and Salemme, F. R. (2001) J Biomol Screen 6, 429-40. • 2. Matulis, D., Kranz, J. K., Salemme, F. R., and Todd, M. J. (2005) Biochemistry 44, 5258-66.
The Kd values for compounds of Formula (I) were determined from a fit of the equation to the concentration-response plot of the fractional activity as a function of Tm. For some experiments, quantitative NMR spectroscopy (qNMR) was used to measure concentration of the initial 100% DMSO compound solutions and, using the same fitting method, qKd values were determined

[2] = compound concentration measured by qNMR, read-out: MGL mutant ThermoFluor qKd (using qNMR conc.)
[3] = 0.07 mg/ml mutant MGL, pH=7.0, read-out: MGL mutant ThermoFluor Kd

| Compound | IC50 [1] [nM] | Kd (mutant MGL; [2]) [nM] | Kd (mutant MGL; [3]) [nM] |
| --- | --- | --- | --- |
| Cc1cc(-n2ccc3cc(C(=O)N4CC(C5CCN(C(=O)c6nccs6)CC5)C4)ccc32)ccn1 [Cpd 95, 1-(2-Methylpyridin-4-yl)-5-({3-[1-(1,3-thiazol-2-ylcarbonyl)piperidin-4-yl]azetidin-1-yl}carbonyl)-1H-indole] | 14 | 38.6 |  |
| Cc1nc2cc(C(=O)N3CC(C4CCN(C(=O)c5nccs5)CC4)C3)ccc2n1CC(F)(F)F [Cpd 90, 2-Methyl-5-({3-[1-(1,3-thiazol-2-ylcarbonyl)piperidin-4-yl]azetidin-l-yl}carbonyl)-1-(2,2,2-trifluoroethyl)-1H-benzimidazole] | 173 | 23.7 |  |
| O=C(c1ccc2c(c1)[nH]c(=O)n2-c1ccc(F)c(F)c1)N1CC(C2CCN(C(=O)c3nccs3)CC2)C1 [Cpd 98, 1-(3,4-Difluorophenyl)-5-({3-[1-(1,3-thiazol-2-ylcarbonyl)piperidin-4-yl]azetidin-1-yl}carbonyl)-1,3-dihydro-2H-benzimidazol-2-one] | 16.6 | 43.6 |  |
| O=C(c1ccc2c(c1)ncn2-c1ccc(F)c(F)c1)N1CC(C2CCN(C(=O)c3nccs3)CC2)C1 [Cpd 82, 1-(3,4-Difluorophenyl)-5-({3-[1-(1,3-thiazol-2-ylcarbonyl)piperidin-4-yl]azetidin-1-yl}carbonyl)-1H-benzimidazole] | 35.5 | 22.8 |  |
| O=C(c1ccc(-c2cccc(C(F)(F)F)c2)cc1)N1CCC(C2CN(C(=O)c3nccs3)C2)CC1 [Cpd 48, 4-[1-(1,3-Thiazol-2-ylcarbonyl)azetidin-3-yl]-1-{[3′-(trifluoromethyl)biphenyl-4-yl]carbonyl}piperidine] | < 5 | 1 |  |
| O=C(c1ccc2c(c1)[nH]c(=O)n2-c1ccccc1)N1CC(C2CCN(C(=O)c3nccs3)CC2)C1 [Cpd 96, 1-Phenyl-5-({3-[1-(1,3-thiazol-2-ylcarbonyl)piperidin-4-yl]azetidin-1-yl}carbonyl)-1,3-dihydro-2H-benzimidazol-2-one] | 78.1 | 24.7 |  |
| Cc1nc2cc(C(=O)N3CC(C4CCN(C(=O)c5nccs5)CC4)C3)ccc2n1-c1ccc(F)cc1 [Cpd 87, 1-(4-Fluorophenyl)-2-methyl-5-({3-[1-(1,3-thiazol-2-ylcarbonyl)piperidin-4-yl]azetidin-1-yl}carbonyl)-1H-benzimidazole] | 31.6 | 7.5 |  |
| O=C(c1ccc2c(c1)[nH]c(=O)n2C1CCC(F)(F)CC1)N1CC(C2CCN(C(=O)c3nccs3)CC2)C1 [Cpd 101, 1-(4,4-Difluorocyclohexyl)-5-({3-[1-(1,3-thiazol-2-ylcarbonyl)piperidin-4-yl]azetidin-1-yl}carbonyl)-1,3-dihydro-2H-benzimidazol-2-one] | 104 | 3.9 |  |
| O=C(c1cscn1)N1CC(C2CCN(C(=O)c3ccc(-c4ccccc4)cc3F)CC2)C1 [Cpd 46] | 111 | 20 |  |
| Cc1nc2cc(C(=O)N3CC(C4CCN(C(=O)c5nccs5)CC4)C3)ccc2n1-c1ccccc1 [Cpd 86, 2-Methyl-1-phenyl-5-({3-[1-(1,3-thiazol-2-ylcarbonyl)piperidin-4-yl]azetidin-1-yl}carbonyl)-1H-benzimidazole] | 18.7 | 10.6 |  |
| Cc1nc2cc(C(=O)N3CC(C4CCN(C(=O)c5nccs5)CC4)C3)ccc2n1C1CCC(F)(F)CC1 [Cpd 92, 1-(4,4-Difluorocyclohexyl)-2-methyl-5-({3-[1-(1,3-thiazol-2-ylcarbonyl)piperidin-4-yl]azetidin-1-yl}carbonyl)-1H-benzimidazole] | 163 | 3.4 |  |
| O=C(c1ccc2c(c1)ncn2CCC(F)(F)F)N1CC(C2CCN(C(=O)c3nccs3)CC2)C1 [Cpd 85, 5-({3-[1-(1,3-Thiazol-2-ylcarbonyl)piperidin-4-yl]azetidin-1-yl}carbonyl)-1-(3,3,3-trifluoropropyl)-1H-benzimidazole] | 280 | 64.5 |  |
| O=C(c1ccc2c(c1)[nH]c(=O)n2CCC(F)(F)F)N1CC(C2CCN(C(=O)c3nccs3)CC2)C1 [Cpd 100, 5-({3-[1-(1,3-Thiazol-2-ylcarbonyl)piperidin-4-yl]azetidin-1-yl}carbonyl)-1-(3,3,3-trifluoropropyl)-1,3-dihydro-2H-benzimidazol-2-one] | 101 | 88.8 |  |
| O=C(c1ccc2c(c1)ncn2-c1ccc(F)cc1)N1CC(C2CCN(C(=O)c3nccs3)CC2)C1 [Cpd 81, 1-(4-Fluorophenyl)-5-({3-[1-(1,3-thiazol-2-ylcarbonyl)piperidin-4-yl]azetidin-1-yl}carbonyl)-1H-benzimidazole] | 23.2 | 14.8 |  |
| Cc1c(C(=O)N2CCC(C3CN(C(=O)c4cscn4)C3)CC2)sc2cc(C(F)(F)F)ccc12 [Cpd 61] | 211 | 0.5 | 0.6 |
| O=C(c1ccc2c(ccn2-c2ccc(Cl)cn2)c1)N1CC(C2CCN(C(=O)c3nccs3)CC2)C1 [Cpd 93, 1-(5-Chloropyridin-2-yl)-5-({3-[1-(1,3-thiazol-2-ylcarbonyl)piperidin-4-yl]azetidin-1-yl}carbonyl)-1H-indole] | < 5 |  | 5.5 |
| O=C(c1ccc2c(ccn2-c2ccc(C(F)(F)F)cc2)c1)N1CCC(C2CN(C(=O)c3nccs3)C2)CC1 [Cpd 75, 5-({4-[1(1,3-Thiazol-2-ylcarbonyl)azetidin-3-yl]piperidin-1-yl}carbonyl)-1-[4-(trifluoromethyl)phenyl]-1H-indole] | < 5 | 3.9 |  |
| O=C(c1ccc2c(ccn2-c2ccc(F)c(F)c2)c1)N1CC(C2CCN(C(=O)c3nccs3)CC2)C1 | < 5 |  | 0.6 |
| O=C(c1ccccc1)N1CCC(O)(C2CN(C(=O)c3cc4cc(C(F)(F)F)ccc4s3)C2)CC1 [Cpd 6, 1-(Phenylcarbonyl)-4-(1-{[5-(trifluoromethyl)-1-benzothiophen-2-yl]carbonyl}azetidin-3-yl)piperidin-4-ol] | 918 |  | 258 |
| O=C(c1cccc(-c2cccc(F)c2)c1)N1CC(C2CCN(C(=O)c3ccc[nH]3)CC2)C1 [Cpd 23, 4-{1-[(3′-Fluorobiphenyl-3-yl)carbonyl]azetidin-3-yl}-1-(1H-pyrrol-2-ylcarbonyl)piperidine] | 368 |  | 500 |

Reference: US8513423B2 (Janssen Pharmaceutica, NV, priority 2010, dated 2013)
